Reference: the NIST ThermoML archive (doi:10.1021/je9003178)
Numbers after ± are expanded uncertainties.

Experiment: activity coefficient (dimensionless); of the first substance listed, at infinite dilution; xn = mol fraction of the nth substance listed
Conditions: Liquid, Chromatography, x1 = 0

Question: Which results are given for `CCCO` [propan-1-ol] + CCCCCC[N+](C)(C)C.O=S(=O)([N-]S(=O)(=O)C(F)(F)F)C(F)(F)F?
Answer: activity coefficient (322.65 K): 1.83 ± 0.079; activity coefficient (343.85 K): 1.51 ± 0.058; activity coefficient (352.65 K): 1.41 ± 0.052

Question: With `CCCO` [propan-1-ol] + CCn1cc[n+](C)c1.N#CN=C=[N-] as the compound, how does the activity coefficient (322.65 K) read?
Answer: 1.07 ± 0.03

Question: And the activity coefficient (332.85 K)?
Answer: 1.01 ± 0.03

Question: What about the activity coefficient (343.15 K) of the same compound?
Answer: 0.97 ± 0.03

Question: Which activity coefficient (322.65 K) does the source give for `CC(C)O` [propan-2-ol] + CCCCCC[N+](C)(C)C.O=S(=O)([N-]S(=O)(=O)C(F)(F)F)C(F)(F)F here?
Answer: 1.69 ± 0.07

Question: And the activity coefficient (343.85 K)?
Answer: 1.39 ± 0.051

Question: And the activity coefficient (352.65 K)?
Answer: 1.33 ± 0.046

Question: Which activity coefficient (322.65 K) does the source give for `CC(C)O` [propan-2-ol] + CCn1cc[n+](C)c1.N#CN=C=[N-] here?
Answer: 1.2 ± 0.04

Question: What about the activity coefficient (332.85 K) of the same compound?
Answer: 1.14 ± 0.03

Question: And the activity coefficient (343.15 K)?
Answer: 1.09 ± 0.03

Question: For `CCC=O` [propanal] + CCCCCC[N+](C)(C)C.O=S(=O)([N-]S(=O)(=O)C(F)(F)F)C(F)(F)F, which activity coefficient (322.65 K) is on record?
Answer: 0.508 ± 0.032

Question: And the activity coefficient (343.85 K)?
Answer: 0.502 ± 0.032

Question: And the activity coefficient (352.65 K)?
Answer: 0.505 ± 0.032

Question: With `CCC=O` [propanal] + CCn1cc[n+](C)c1.N#CN=C=[N-] as the compound, how does the activity coefficient (322.65 K) read?
Answer: 1.4 ± 0.05

Question: What about the activity coefficient (332.85 K) of the same compound?
Answer: 1.39 ± 0.05

Question: What about the activity coefficient (343.15 K) of the same compound?
Answer: 1.37 ± 0.05

Question: Which activity coefficient (322.65 K) does the source give for `c1ccncc1` [pyridine] + CCCCCC[N+](C)(C)C.O=S(=O)([N-]S(=O)(=O)C(F)(F)F)C(F)(F)F here?
Answer: 0.336 ± 0.035

Question: And the activity coefficient (343.85 K)?
Answer: 0.589 ± 0.031

Question: What about the activity coefficient (352.65 K) of the same compound?
Answer: 0.607 ± 0.031

Question: Which activity coefficient (322.65 K) does the source give for `c1ccncc1` [pyridine] + CCn1cc[n+](C)c1.N#CN=C=[N-] here?
Answer: 0.4 ± 0.03

Question: And the activity coefficient (332.85 K)?
Answer: 1.05 ± 0.03

Question: What about the activity coefficient (343.15 K) of the same compound?
Answer: 1.07 ± 0.03

Question: Which activity coefficient (322.65 K) does the source give for `ClC(Cl)(Cl)Cl` [tetrachloromethane] + CCCCCC[N+](C)(C)C.O=S(=O)([N-]S(=O)(=O)C(F)(F)F)C(F)(F)F here?
Answer: 2.42 ± 0.11

Question: What about the activity coefficient (343.85 K) of the same compound?
Answer: 2.39 ± 0.11

Question: And the activity coefficient (352.65 K)?
Answer: 2.42 ± 0.11

Question: For `ClC(Cl)(Cl)Cl` [tetrachloromethane] + CCn1cc[n+](C)c1.N#CN=C=[N-], which activity coefficient (322.65 K) is on record?
Answer: 4.49 ± 0.2

Question: And the activity coefficient (332.85 K)?
Answer: 4.61 ± 0.21

Question: What about the activity coefficient (343.15 K) of the same compound?
Answer: 4.71 ± 0.21

Question: With `CCCCCCCCCCCCCC` [tetradecane] + CCCCCC[N+](C)(C)C.O=S(=O)([N-]S(=O)(=O)C(F)(F)F)C(F)(F)F as the compound, how does the activity coefficient (322.65 K) read?
Answer: 159 ± 7.5

Question: And the activity coefficient (343.85 K)?
Answer: 101 ± 4.7

Question: What about the activity coefficient (352.65 K) of the same compound?
Answer: 84.7 ± 4

Question: Which activity coefficient (322.65 K) does the source give for `CCCCCCCCCCCCCC` [tetradecane] + CCn1cc[n+](C)c1.N#CN=C=[N-] here?
Answer: 2500 ± 120

Question: And the activity coefficient (332.85 K)?
Answer: 2330 ± 110

Question: What about the activity coefficient (343.15 K) of the same compound?
Answer: 2190 ± 110

Question: For `C1CCOC1` [tetrahydrofuran] + CCCCCC[N+](C)(C)C.O=S(=O)([N-]S(=O)(=O)C(F)(F)F)C(F)(F)F, which activity coefficient (322.65 K) is on record?
Answer: 0.686 ± 0.03

Question: What about the activity coefficient (343.85 K) of the same compound?
Answer: 0.754 ± 0.029

Question: And the activity coefficient (352.65 K)?
Answer: 0.808 ± 0.028

Question: With `c1ccsc1` [thiophene] + CCCCCC[N+](C)(C)C.O=S(=O)([N-]S(=O)(=O)C(F)(F)F)C(F)(F)F as the compound, how does the activity coefficient (322.65 K) read?
Answer: 0.921 ± 0.026

Question: And the activity coefficient (343.85 K)?
Answer: 0.92 ± 0.026

Question: What about the activity coefficient (352.65 K) of the same compound?
Answer: 0.941 ± 0.026

Question: Which activity coefficient (322.65 K) does the source give for `c1ccsc1` [thiophene] + CCn1cc[n+](C)c1.N#CN=C=[N-] here?
Answer: 1.6 ± 0.06

Question: And the activity coefficient (332.85 K)?
Answer: 1.51 ± 0.06

Question: And the activity coefficient (343.15 K)?
Answer: 1.53 ± 0.06

Question: Which activity coefficient (322.65 K) does the source give for `Cc1ccccc1` [toluene] + CCCCCC[N+](C)(C)C.O=S(=O)([N-]S(=O)(=O)C(F)(F)F)C(F)(F)F here?
Answer: 1.31 ± 0.045

Question: What about the activity coefficient (343.85 K) of the same compound?
Answer: 1.33 ± 0.046

Question: What about the activity coefficient (352.65 K) of the same compound?
Answer: 1.38 ± 0.05

Question: Which activity coefficient (322.65 K) does the source give for `Cc1ccccc1` [toluene] + CCn1cc[n+](C)c1.N#CN=C=[N-] here?
Answer: 4.22 ± 0.19

Question: And the activity coefficient (332.85 K)?
Answer: 4.21 ± 0.19

Question: What about the activity coefficient (343.15 K) of the same compound?
Answer: 4.21 ± 0.19

Question: Which activity coefficient (322.65 K) does the source give for `ClC(Cl)Cl` [trichloromethane] + CCCCCC[N+](C)(C)C.O=S(=O)([N-]S(=O)(=O)C(F)(F)F)C(F)(F)F here?
Answer: 0.89 ± 0.027

Question: What about the activity coefficient (343.85 K) of the same compound?
Answer: 0.929 ± 0.026

Question: And the activity coefficient (352.65 K)?
Answer: 0.966 ± 0.026

Question: For `ClC(Cl)Cl` [trichloromethane] + CCn1cc[n+](C)c1.N#CN=C=[N-], which activity coefficient (322.65 K) is on record?
Answer: 0.76 ± 0.03

Question: And the activity coefficient (332.85 K)?
Answer: 0.81 ± 0.03

Question: And the activity coefficient (343.15 K)?
Answer: 0.86 ± 0.03

Question: With `CCCCCCCCCCCCC` [tridecane] + CCCCCC[N+](C)(C)C.O=S(=O)([N-]S(=O)(=O)C(F)(F)F)C(F)(F)F as the compound, how does the activity coefficient (322.65 K) read?
Answer: 100 ± 4.7

Question: What about the activity coefficient (343.85 K) of the same compound?
Answer: 76.2 ± 3.6

Question: And the activity coefficient (352.65 K)?
Answer: 71.5 ± 3.3

Question: With `CCCCCCCCCCCCC` [tridecane] + CCn1cc[n+](C)c1.N#CN=C=[N-] as the compound, how does the activity coefficient (322.65 K) read?
Answer: 1940 ± 94

Question: And the activity coefficient (332.85 K)?
Answer: 1780 ± 86

Question: What about the activity coefficient (343.15 K) of the same compound?
Answer: 1650 ± 79

Question: For `CCN(CC)CC` [triethylamine] + CCCCCC[N+](C)(C)C.O=S(=O)([N-]S(=O)(=O)C(F)(F)F)C(F)(F)F, which activity coefficient (322.65 K) is on record?
Answer: 4.53 ± 0.21

Question: What about the activity coefficient (343.85 K) of the same compound?
Answer: 4.83 ± 0.22

Question: What about the activity coefficient (352.65 K) of the same compound?
Answer: 5.04 ± 0.23

Question: What does the source list for `CCN(CC)CC` [triethylamine] + CCn1cc[n+](C)c1.N#CN=C=[N-]?
Answer: activity coefficient (322.65 K): 9.09 ± 0.42; activity coefficient (332.85 K): 35.8 ± 1.7; activity coefficient (343.15 K): 131 ± 6.2

Question: Which activity coefficient (322.65 K) does the source give for `CCCCCCCCCCC` [undecane] + CCCCCC[N+](C)(C)C.O=S(=O)([N-]S(=O)(=O)C(F)(F)F)C(F)(F)F here?
Answer: 51.2 ± 2.4

Question: And the activity coefficient (343.85 K)?
Answer: 42 ± 2

Question: And the activity coefficient (352.65 K)?
Answer: 39.7 ± 1.8

Question: For `CCCCCCCCCCC` [undecane] + CCn1cc[n+](C)c1.N#CN=C=[N-], which activity coefficient (322.65 K) is on record?
Answer: 1030 ± 50

Question: What about the activity coefficient (332.85 K) of the same compound?
Answer: 926 ± 44

Question: And the activity coefficient (343.15 K)?
Answer: 834 ± 40
